Experimental data: US20230302014A1, “USES OF GLUCOCORTICOID RECEPTOR (GR) ANTAGONIST AND ANDROGEN RECEPTOR (AR) DEGRADER COMBINATIONS” (ORIC Pharmaceuticals, Inc., priority 2020, published 2023)

Key:
CWR22PC cells = experiment: Cell growth (cell number) of prostate cancer cells under long-term treatment; format: cell-based, Human; conditions: CSS media; for R1881-induced cell growth: CWR22PC, + 0.5 µM compound 1
Experimental: (§1) CWR22PC cells were seeded at a density of 2 × 10^5 cells/well in 6-well plates (Corning# 3516) in 2 mL of RPMI-1640 media supplemented with 10% charcoal-stripped serum (CSS) in duplicate. 24 hours later, cells were treated with 100 pM R1881, 30 nM dexamethasone, 0.5 µM compound 1, 1 µM of ARD1 or ARD2, or combinations thereof as indicated. Fresh media containing the indicated treatment was replaced every 5-7 days. Cell supernatant was collected on Day 12 and 19 and stored at -80° C. for PSA AlphaLISA assay. Cell images were taken on Day 12 and 19 using Leica DMi8 microscope (LEICA MICROSYSTEMS, INC. IL) with a 10X magnification. Cells were then trypsinized and cell numbers in each treatment group were counted three times, average counts were plotted with GraphPad Prism 8. Cell pellets were washed once with 1XPBS and then lysed in 600 µL RLT RNA lysis buffer and stored at -80° C. RNA was extracted for end of study (EOS) biomarker analysis for which the detailed procedures are described in the section RNA Extraction and RT-qPCR analysis.
The impact of ARD1 and ARD2 on the growth of prostate cancer cells was explored. CWR22PC cells were plated in charcoal-stripped serum (CSS) media and treated with vehicle or 0.1 nM R1881 (synthetic AR ligand) without or with 1 µM of ARD1 or ARD2. Media with treatments were replaced every 5-7 days and cells were maintained at 37° C. for 22 days. Supernatant of each group was harvested at day 22 to measure PSA secretion by PSA AlphaLISA assays.
as §1, with “24 hours later, cells were treated with 100 pM R1881, 30 nM dexamethasone, 0.5 µM compound 1, 1 µM of ARD1 or ARD2, or combinations thereof as indicated.” left out, “15” for “12”, “21” for “19”, “assay.” for “assay. Cell images were taken on Day 12 and 19 using Leica DMi8 microscope (LEICA MICROSYSTEMS, INC. IL) with a 10X magnification.”

PSA = PSA AlphaLISA assay of cell supernatant (PSA secretion); format: cell-based, Human; conditions: CSS media; for R1881-induced PSA secretion: CWR22PC, + 0.5 µM compound 1
[1] = system: AR and/or GR target genes KLK4, KLF9, FKBP5, PER1, SGK1; experiment: Biomarker analysis by RT-qPCR, 48 hours; format: cell-based, Human; conditions: CWR22PC and 22Rv1 cells
Experimental: CWR22PC and 22RV1 cells were seeded at a density of 2 × 10^5 cells/well in 6-well plates in 2 mL of RPMI-1640 media supplemented with 10% charcoal-stripped serum (CSS). Cells were treated with 100 pM R1881, 30 nM dexamethasone, 0.5 µM compound 1, 1 µM of ARD1 or ARD2, or combinations thereof as indicated and maintained at 37° C. 48 hours later, media was removed, and cells were washed once with PBS and then harvested for mRNA analysis.
(§2) Adherent cells or cell pellets harvested for mRNA analysis were first washed once with PBS and then resuspended in 600 µL of RLT lysis buffer (Qiagen Inc.) supplemented with 1% of betamercaptoethanol. RNA was extracted by QIAcube using the RNeasy Mini QIAcube kit (Qiagen#74116) according to manufacturer’s instructions. The extracted RNA samples were then quantified using a Nanodrop 8000 Spectrophotometer. RT-qPCR reactions were set up in triplicate using 3 µL of 3 ng/ µL of RNA in 7 µL of pre-mixed SensiFAST™ SYBR No-ROX One-Step Kit reagents (BIOLINE# BIO-98005). The RT-qPCR reactions were run on a Bio-Rad CFX384 Real-Time PCR System and data was plotted with GraphPad Prism 8 software.
CWR22PC and 22Rv1 cells were seeded at a density of 2 × 10^5 cells/well in 6-well plates in 2 mL of RPMI-1640 media supplemented with 10% charcoal-stripped serum (CSS). […] 48 hours later, media was removed, and cells were washed once with PBS and then harvested for mRNA analysis.

[2] = system: AR and GR target genes in CWR22PC cells; experiment: End of study (EOS) biomarker analysis by RT-qPCR; format: cell-based, Human; conditions: CSS media, + 0.5 µM compound 1
Experimental: as §1, §2
CWR22PC cells were seeded at a density of 2 × 10^5 cells/well in 6-well plates (Corning# 3516) in 2 mL of RPMI-1640 media supplemented with 10% charcoal-stripped serum (CSS) in duplicate. […] Cells were then trypsinized and cell numbers in each treatment group were counted three times, average counts were plotted with GraphPad Prism 8. […]

GR = target: T1, GR (Homo sapiens, UniProt P04150); conditions: prostate cancer models with GR upregulated, in response to glucocorticoids; Zhou et al. 2019; cited from earlier work
T1 sequence (P04150 1-777): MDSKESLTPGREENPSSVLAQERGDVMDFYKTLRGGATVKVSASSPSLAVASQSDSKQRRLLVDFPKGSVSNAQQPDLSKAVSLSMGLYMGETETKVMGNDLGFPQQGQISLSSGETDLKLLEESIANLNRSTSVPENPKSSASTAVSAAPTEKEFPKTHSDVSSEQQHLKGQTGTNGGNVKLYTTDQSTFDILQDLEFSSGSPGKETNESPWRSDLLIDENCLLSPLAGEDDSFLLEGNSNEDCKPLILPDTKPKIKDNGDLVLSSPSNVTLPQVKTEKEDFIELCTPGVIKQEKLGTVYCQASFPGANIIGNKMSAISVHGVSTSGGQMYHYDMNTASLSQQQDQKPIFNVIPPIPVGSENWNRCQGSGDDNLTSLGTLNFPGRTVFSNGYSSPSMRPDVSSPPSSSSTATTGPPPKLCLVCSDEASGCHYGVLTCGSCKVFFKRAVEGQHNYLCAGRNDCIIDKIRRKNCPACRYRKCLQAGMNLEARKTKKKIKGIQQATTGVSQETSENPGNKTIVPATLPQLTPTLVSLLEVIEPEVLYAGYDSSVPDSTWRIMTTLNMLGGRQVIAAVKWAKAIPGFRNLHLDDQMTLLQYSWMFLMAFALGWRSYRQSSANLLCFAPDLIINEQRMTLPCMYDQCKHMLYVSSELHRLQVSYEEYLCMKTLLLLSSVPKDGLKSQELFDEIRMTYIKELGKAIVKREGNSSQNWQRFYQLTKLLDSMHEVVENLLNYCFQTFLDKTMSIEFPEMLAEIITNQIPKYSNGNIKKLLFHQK

[3] = system: AR target genes KLK3, KLK4, NKX3.1, FKBP5; experiment: Target gene assay (RT-qPCR, R1881-induced AR target genes); format: cell-based, Human; conditions: 100 pM R1881, 24 hours post treatment
Experimental: (§3) 10,000 LNCaP and CWR22PC cells per well were plated in triplicate in poly-lysine coated 96-well plates (ThermoFisher#152039) in 200 µL of RPMI-1640 media supplemented with 10% charcoal-stripped serum. 24 hours later, cells were treated with 100 pM of R1881 and 8-point dilution for enzalutamide, ARD1 or ARD2 with concentrations ranging from 1 µM to 0.46 nM. After incubation at 37° C. for 24 hours, media was removed, and cells were washed once with PBS. 55 µL per well of iScript RT-qPCR sample preparation reagent (Bio-Rad #1708898) was added and incubated for 2 minutes before lysate was collected for mRNA analysis. RT-qPCR was set up in triplicate using 3 µL of lysate plus 7 µL of pre-mixed SensiFAST™ SYBR No-ROX One-Step Kit reagents (BIOLINE, Cat# BIO-98005) per reaction. The RT-qPCR reactions were run on a Bio-Rad CFX384 Real-Time PCR System and data was plotted with GraphPad Prism 8 software.
as §3, with “15,000” for “10,000”, “24 hours later, cells were treated with 100 pM of R1881 and 8-point dilution for enzalutamide, ARD1 or ARD2 with concentrations ranging from 1 µM to 0.46 nM.” left out, “75” for “55”

[4] = 19 days, 0.1 nM R1881 + 1 µM ARD1 or ARD2, + 30 nM dexamethasone
[5] = 21 days, 0.1 nM R1881 + 1 µM ARV-110, + 30 nM dexamethasone

CC(C)N(C)c1ccc([C@H]2C[C@@]3(C)[C@@H](CC[C@@]3(O)C#CC(C)(C)C)[C@@H]3CCC4=CC(=O)CC[C@@H]4[C@H]32)cc1 [Compound 1]
R1881-induced cell growth (CWR22PC cells; [4]): fully reverses
R1881-induced cell growth (CWR22PC cells; [5]): fully reverses
R1881-induced PSA secretion (PSA; [4]): fully reverses
R1881-induced PSA secretion (PSA; [5]): fully reverses
DEX-induced GR and AR target gene expression ([1]; 0.5 µM compound 1 in the presence of 1 µM ARD1 or ARD2, 0.1 nM R1881, 30 nM DEX): fully reverses
DEX-induced GR and AR target gene expression ([1]; 0.5 µM compound 1 in the presence of 1 µM ARV-110, 0.1 nM R1881, 30 nM DEX): fully reverses
R1881-induced target gene (biomarker) expression ([2]; day 19 EOS, 0.1 nM R1881 + 1 µM ARD1 or ARD2, + 30 nM dexamethasone): fully reverses
R1881-induced target gene (biomarker) expression ([2]; day 21 EOS, 0.1 nM R1881 + 1 µM ARV-110, + 30 nM dexamethasone): fully reverses
sensitivity to enzalutamide treatment (GR): restores sensitivity to enzalutamide treatment

C[C@]1(O)CC[C@H]2[C@@H]3CCC4=CC(=O)CCC4=C3C=C[C@@]21C [Compound R1881]
CWR22PC cell growth (CWR22PC cells; 0.1 nM R1881 without or with 1 µM ARD1 or ARD2, 22 days): promotes
PSA secretion (PSA; CWR22PC cells, 0.1 nM R1881 without or with 1 µM ARD1 or ARD2, day 22): promotes

CNC(=O)c1ccc(N2C(=S)N(c3ccc(C#N)c(C(F)(F)F)c3)C(=O)C2(C)C)cc1F [Enzalutamide, enzalutamide]
AR target gene FKBP5 induced by R1881 ([3]; CWR22PC cells): inhibit
AR target gene KLK3 induced by R1881 ([3]; CWR22PC cells): inhibit
AR target gene KLK4 induced by R1881 ([3]; CWR22PC cells): inhibit
AR target gene NKX3.1 induced by R1881 ([3]; CWR22PC cells): inhibit
AR target gene FKBP5 induced by R1881 ([3]; LNCaP cells): inhibit
AR target gene KLK3 induced by R1881 ([3]; LNCaP cells): inhibit
AR target gene KLK4 induced by R1881 ([3]; LNCaP cells): inhibit
AR target gene NKX3.1 induced by R1881 ([3]; LNCaP cells): inhibit
